Assay type in all cases: cell-based
One assay deals with T1, hNav1.1 (Homo sapiens, UniProt P35498).
T1 construct: host or cells: HEK293
Nature of the assay: FLIPR membrane potential assay, hNav1.1. To be noted: for Selectivity for Nav1.7, Nav subtype 1.1: membrane potential assay. How it is done:
(§1) HEK293 cells stably expressing hNav1.1, hNav1.2, hNav1.3, hNav1.4, hNav1.5, hNav1.6, hNav1.7 and […] (SB Drug Discovery, Glasgow, UK) were cultured in minimum essential media (MEM) containing 10% v/v FBS supplemented with L-glutamine (2 mM) and selection antibiotics G-418 (0.5 mg/mL), blasticidin (2-4 μg/mL) and zeocin (0.5 mg/mL) as recommended by the manufacturer. CHO cells stably expressing hNav1.8 in a tetracycline-inducible system (Chantest, OH, USA) were cultured in Ham's F-12 containing 10% v/v FBS and selection antibiotics as recommended by the manufacturer. To induce hNav1.8 expression, cells were cultured in the presence of tetracycline (1 μg/mL) for 24 h at 27° C. Cells were grown in a humidified 5% CO2 incubator at 37° C., grown to 70-80% confluence, and passaged every 3-4 days using TrypLE Express (Invitrogen).
(§2) Cells were plated 48 h before the assay on 384-well black walled imaging plates at a density of 10,000 to 15,000 cells per well and were loaded with red membrane potential dye for 30 min at 37° C. (Molecular Devices, CA, USA). One vial of bulk red membrane potential dye was reconstituted to a 10× stock solution with PSS and stored at −20° C. and diluted to 1× solution with PSS on the day of the assay. […] Changes in membrane potential were assessed using the FLIPR^TETRA (excitation 515 to 545 nm, emission 565 to 625 nm) every second for 300 s after adding agonists.

In another assay the target is T2, hNav1.2 (Homo sapiens, UniProt Q99250).
T2 construct: host or cells: HEK293
In words: FLIPR membrane potential assay, hNav1.2. Particulars: for Selectivity for Nav1.7, Nav subtype 1.2: membrane potential assay. How it is done: as §1, §2

The next assay addresses T3, hNav1.3 (Homo sapiens, UniProt Q9NY46).
T3 construct: host or cells: HEK293
In words: FLIPR membrane potential assay, hNav1.3. To be noted: for Selectivity for Nav1.7, Nav subtype 1.3: membrane potential assay. How it is done:
as §1, §2

The next assay has as its target T4, hNav1.4 (Homo sapiens, UniProt P35499).
T4 construct: host or cells: HEK293
Nature of the assay: FLIPR membrane potential assay, hNav1.4. To be noted: for Selectivity for Nav1.7, Nav subtype 1.4: membrane potential assay. How it is done:
as §1, §2

A further assay has as its target T5, hNav1.5 (Homo sapiens, UniProt Q14524).
T5 construct: host or cells: HEK293
In words: FLIPR membrane potential assay, hNav1.5. To be noted: for Selectivity for Nav1.7, Nav subtype 1.5: membrane potential assay. The procedure: as §1, §2

Another assay concerns the target T6, hNav1.6 (Homo sapiens, UniProt Q9UQD0).
T6 construct: host or cells: HEK293
Nature of the assay: FLIPR membrane potential assay, hNav1.6. To be noted: for Selectivity for Nav1.7, Nav subtype 1.6: membrane potential assay. How it is done: as §1, §2

For a further assay, the target named is T7, hNav1.7 (Homo sapiens, UniProt Q15858).
T7 construct: host or cells: HEK293
T7 sequence (Q15858 whole entry): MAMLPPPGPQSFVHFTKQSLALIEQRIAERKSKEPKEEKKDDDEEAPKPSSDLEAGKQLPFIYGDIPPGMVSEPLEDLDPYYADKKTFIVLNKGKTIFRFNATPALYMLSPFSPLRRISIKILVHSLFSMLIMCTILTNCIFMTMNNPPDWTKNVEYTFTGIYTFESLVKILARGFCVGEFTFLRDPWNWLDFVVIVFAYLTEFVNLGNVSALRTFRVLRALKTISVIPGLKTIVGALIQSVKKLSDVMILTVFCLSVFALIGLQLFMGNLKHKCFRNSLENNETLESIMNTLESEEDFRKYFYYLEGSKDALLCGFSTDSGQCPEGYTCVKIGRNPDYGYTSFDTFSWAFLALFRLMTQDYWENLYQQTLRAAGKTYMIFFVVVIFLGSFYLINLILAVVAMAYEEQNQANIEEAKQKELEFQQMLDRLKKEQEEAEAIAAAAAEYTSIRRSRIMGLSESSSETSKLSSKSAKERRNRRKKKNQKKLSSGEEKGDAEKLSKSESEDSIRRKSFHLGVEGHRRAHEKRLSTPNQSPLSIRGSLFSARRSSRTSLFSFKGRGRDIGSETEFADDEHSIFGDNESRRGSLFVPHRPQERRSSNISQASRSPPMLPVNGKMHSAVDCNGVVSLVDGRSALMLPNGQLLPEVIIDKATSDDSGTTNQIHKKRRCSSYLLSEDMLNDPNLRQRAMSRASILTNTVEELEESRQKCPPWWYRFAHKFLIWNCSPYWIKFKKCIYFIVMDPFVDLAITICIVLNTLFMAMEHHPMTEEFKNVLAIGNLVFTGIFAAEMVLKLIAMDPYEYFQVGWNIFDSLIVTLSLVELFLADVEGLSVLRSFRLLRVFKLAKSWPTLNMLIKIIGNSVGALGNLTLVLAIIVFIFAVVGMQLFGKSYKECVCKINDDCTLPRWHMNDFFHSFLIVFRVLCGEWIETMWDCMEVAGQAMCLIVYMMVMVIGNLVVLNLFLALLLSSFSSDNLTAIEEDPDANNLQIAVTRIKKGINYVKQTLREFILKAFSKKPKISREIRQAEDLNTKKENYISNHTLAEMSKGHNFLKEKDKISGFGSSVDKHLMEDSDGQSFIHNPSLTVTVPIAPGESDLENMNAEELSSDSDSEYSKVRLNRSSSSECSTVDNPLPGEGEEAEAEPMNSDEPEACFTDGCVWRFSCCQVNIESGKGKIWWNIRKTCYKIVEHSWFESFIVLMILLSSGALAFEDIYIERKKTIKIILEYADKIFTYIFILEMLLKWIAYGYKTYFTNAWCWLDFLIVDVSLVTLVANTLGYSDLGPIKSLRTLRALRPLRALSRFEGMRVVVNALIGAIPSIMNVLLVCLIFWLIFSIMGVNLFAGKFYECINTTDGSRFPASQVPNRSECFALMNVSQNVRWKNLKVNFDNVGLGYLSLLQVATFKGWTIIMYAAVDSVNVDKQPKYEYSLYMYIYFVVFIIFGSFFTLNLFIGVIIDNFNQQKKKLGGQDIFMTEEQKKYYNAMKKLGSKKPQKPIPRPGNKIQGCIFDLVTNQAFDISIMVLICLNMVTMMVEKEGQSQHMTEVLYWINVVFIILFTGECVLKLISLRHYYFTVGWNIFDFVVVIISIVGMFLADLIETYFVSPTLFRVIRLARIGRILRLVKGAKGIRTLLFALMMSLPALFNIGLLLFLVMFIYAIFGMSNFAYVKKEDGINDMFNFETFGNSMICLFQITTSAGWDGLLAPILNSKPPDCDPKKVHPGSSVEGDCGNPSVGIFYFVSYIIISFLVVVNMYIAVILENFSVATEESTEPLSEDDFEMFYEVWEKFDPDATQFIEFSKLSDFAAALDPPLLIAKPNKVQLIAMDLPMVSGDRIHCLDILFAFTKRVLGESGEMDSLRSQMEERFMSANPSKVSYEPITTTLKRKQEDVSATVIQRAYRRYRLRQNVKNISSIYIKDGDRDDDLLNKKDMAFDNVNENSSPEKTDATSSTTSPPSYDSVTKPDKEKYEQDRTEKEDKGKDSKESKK
In words: FLIPR membrane potential assay, hNav1.7. To be noted: for Selectivity for Nav1.7, Nav subtype 1.7: membrane potential assay, reference subtype. The procedure:
as §1, §2

In a further assay the target is T8, hNav1.8 (Homo sapiens, UniProt Q9Y5Y9).
T8 construct: host or cells: HEK293
In words: FLIPR membrane potential assay, hNav1.8. To be noted: for Selectivity for Nav1.7, Nav subtype 1.8: membrane potential assay. How it is done: as §1, §2

Where a SMILES comes first, the peptide text is derived from it. Bridges are numbered along the chain shown (N, C = ends).

T6 sequence (Q9UQD0 whole entry): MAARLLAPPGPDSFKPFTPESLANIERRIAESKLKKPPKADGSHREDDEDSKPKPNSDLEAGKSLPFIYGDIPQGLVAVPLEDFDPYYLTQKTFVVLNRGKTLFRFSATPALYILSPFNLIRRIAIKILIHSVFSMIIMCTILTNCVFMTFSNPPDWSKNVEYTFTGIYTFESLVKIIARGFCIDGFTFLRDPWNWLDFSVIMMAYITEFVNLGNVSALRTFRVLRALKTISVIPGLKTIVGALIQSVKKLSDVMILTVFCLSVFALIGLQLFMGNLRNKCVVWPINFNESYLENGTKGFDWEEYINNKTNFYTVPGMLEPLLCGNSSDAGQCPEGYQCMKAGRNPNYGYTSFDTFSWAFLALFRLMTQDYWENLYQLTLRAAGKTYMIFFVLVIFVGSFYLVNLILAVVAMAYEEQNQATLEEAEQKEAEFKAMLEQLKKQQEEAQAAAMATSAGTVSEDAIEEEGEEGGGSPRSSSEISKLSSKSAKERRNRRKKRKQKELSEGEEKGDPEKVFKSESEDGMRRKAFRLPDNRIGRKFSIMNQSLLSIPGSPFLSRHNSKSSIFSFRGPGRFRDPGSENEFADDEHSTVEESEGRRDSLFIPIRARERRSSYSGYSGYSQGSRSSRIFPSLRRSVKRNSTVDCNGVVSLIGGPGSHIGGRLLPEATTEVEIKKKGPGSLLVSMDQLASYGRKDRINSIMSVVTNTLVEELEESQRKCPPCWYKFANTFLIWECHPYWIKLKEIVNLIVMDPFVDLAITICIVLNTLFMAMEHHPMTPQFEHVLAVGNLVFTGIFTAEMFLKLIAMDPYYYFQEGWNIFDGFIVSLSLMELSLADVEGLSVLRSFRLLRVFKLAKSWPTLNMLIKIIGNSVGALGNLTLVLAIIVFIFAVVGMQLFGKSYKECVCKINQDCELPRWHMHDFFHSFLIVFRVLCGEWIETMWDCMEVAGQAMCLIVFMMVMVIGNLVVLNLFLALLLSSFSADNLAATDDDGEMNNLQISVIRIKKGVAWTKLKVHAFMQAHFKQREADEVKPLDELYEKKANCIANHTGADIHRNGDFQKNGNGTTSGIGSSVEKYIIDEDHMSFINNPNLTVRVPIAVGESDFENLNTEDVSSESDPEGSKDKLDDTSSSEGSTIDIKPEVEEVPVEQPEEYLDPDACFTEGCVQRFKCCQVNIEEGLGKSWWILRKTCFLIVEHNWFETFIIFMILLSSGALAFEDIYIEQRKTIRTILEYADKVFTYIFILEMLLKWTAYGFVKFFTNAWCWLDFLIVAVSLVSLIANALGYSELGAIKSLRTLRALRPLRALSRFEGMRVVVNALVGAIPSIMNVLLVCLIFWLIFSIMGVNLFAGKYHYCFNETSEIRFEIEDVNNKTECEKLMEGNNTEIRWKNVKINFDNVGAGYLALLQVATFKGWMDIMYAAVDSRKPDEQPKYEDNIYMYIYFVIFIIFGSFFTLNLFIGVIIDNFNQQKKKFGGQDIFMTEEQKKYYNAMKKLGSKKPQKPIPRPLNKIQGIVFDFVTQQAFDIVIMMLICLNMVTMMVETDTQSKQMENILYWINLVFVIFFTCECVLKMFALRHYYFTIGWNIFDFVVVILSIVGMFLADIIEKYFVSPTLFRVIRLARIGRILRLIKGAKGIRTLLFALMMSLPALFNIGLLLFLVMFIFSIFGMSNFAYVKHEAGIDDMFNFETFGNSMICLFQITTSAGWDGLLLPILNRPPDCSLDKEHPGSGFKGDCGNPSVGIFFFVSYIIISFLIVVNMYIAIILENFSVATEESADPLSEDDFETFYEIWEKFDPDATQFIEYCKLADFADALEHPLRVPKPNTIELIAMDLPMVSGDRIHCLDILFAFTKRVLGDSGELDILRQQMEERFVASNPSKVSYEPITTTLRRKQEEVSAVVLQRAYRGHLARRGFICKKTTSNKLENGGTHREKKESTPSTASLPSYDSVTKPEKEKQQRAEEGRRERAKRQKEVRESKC

A word on the IC50: it is the concentration at which inhibition is half-maximal. A low value points to higher potency. Consider `CSCC[C@@H]1NC(=O)[C@H](Cc2ccc(O)cc2)NC(=O)[C@H](CCCNC(=N)N)NC(=O)[C@@H](NC(=O)[C@@H](N)CCCCN)CSSC[C@@H]2NC(=O)[C@@H]3CSSC[C@@H](C(=O)N[C@@H](C)C(=O)N[C@@H](Cc4c[nH]c5ccccc45)C(=O)N[C@@H](CC(=O)O)C(=O)N[C@@H](Cc4ccccc4)C(=O)N[C@H](C(=O)N[C@@H](Cc4ccccc4)C(=O)N[C@H](C(=O)O)[C@@H](C)O)[C@@H](C)O)NC(=O)[C@H](Cc4ccc(O)cc4)NC(=O)[C@H](CCCCN)NC(=O)[C@H](CCSC)NC(=O)[C@H](CCCCN)NC(=O)[C@H](CCCNC(=N)N)NC(=O)[C@H](CCCCN)NC(=O)[C@H](CSSC[C@H](NC(=O)[C@H](CC(=O)O)NC(=O)CNC(=O)[C@H](Cc4ccccc4)NC1=O)C(=O)N[C@@H](CCC(=O)O)C(=O)N[C@@H](CCCCN)C(=O)N[C@@H](CC(=O)O)C(=O)N[C@@H](CCC(=O)O)C(=O)N[C@@H](CC(=O)O)C(=O)N3)NC(=O)CNC(=O)[C@H](CC(C)C)NC(=O)[C@H](Cc1c[nH]cn1)NC(=O)[C@H](CCCCN)NC2=O` [[D1K]Pnc1a] (H-KCRYMFGDCEKDEDCCKHLGCKRKMKYCAWDFTFT-OH; disulfide 2-16, 9-21, 15-28), for which, on hNav1.1, half-maximal inhibition (IC50) required 754 nM and the “Selectivity for Nav1.7, Nav subtype 1.1” value came to 24. Further, at hNav1.2, the IC50 stood at 261 nM and the “Selectivity for Nav1.7, Nav subtype 1.2” value was found to be 8. On hNav1.3, 4000 nM corresponded to half-maximal inhibition (IC50) and the “Selectivity for Nav1.7, Nav subtype 1.3” value was 134. On hNav1.4, the IC50 was found to be 3000 nM and the “Selectivity for Nav1.7, Nav subtype 1.4” value amounted to 86. For the same molecule, on hNav1.5, the IC50 is over 30000 nM and the “Selectivity for Nav1.7, Nav subtype 1.5” value is over 900. In addition, at hNav1.6, the 50% inhibitory concentration (IC50) is over 30000 nM and the “Selectivity for Nav1.7, Nav subtype 1.6” value was over 900. Besides, at hNav1.7, the midpoint of inhibition, the IC50, lay at 31 nM and the “Selectivity for Nav1.7, Nav subtype 1.7” value was 1. Further, on hNav1.8, the IC50 was over 30000 nM and the “Selectivity for Nav1.7, Nav subtype 1.8” value is listed as over 900.
For `CSCC[C@@H]1NC(=O)[C@H](Cc2ccc(O)cc2)NC(=O)[C@H](CCCNC(=N)N)NC(=O)[C@@H](NC(=O)[C@@H](N)CC(=O)O)CSSC[C@@H]2NC(=O)[C@@H]3CSSC[C@@H](C(=O)N[C@@H](C)C(=O)N[C@@H](Cc4c[nH]c5ccccc45)C(=O)N[C@@H](CC(=O)O)C(=O)N[C@@H](Cc4ccccc4)C(=O)N[C@H](C(=O)N[C@@H](Cc4ccccc4)C(=O)N[C@H](C(=O)O)[C@@H](C)O)[C@@H](C)O)NC(=O)[C@H](Cc4ccc(O)cc4)NC(=O)[C@H](CCCCN)NC(=O)[C@H](CCSC)NC(=O)[C@H](CCCCN)NC(=O)[C@H](CCCNC(=N)N)NC(=O)[C@H](CCCCN)NC(=O)[C@H](CSSC[C@H](NC(=O)CNC(=O)CNC(=O)[C@H](Cc4ccccc4)NC1=O)C(=O)N[C@@H](CCC(=O)O)C(=O)N[C@@H](CCCCN)C(=O)N[C@@H](CC(=O)O)C(=O)N[C@@H](CCC(=O)O)C(=O)N[C@@H](CC(=O)O)C(=O)N3)NC(=O)CNC(=O)[C@H](CC(C)C)NC(=O)[C@H](Cc1c[nH]cn1)NC(=O)[C@H](CCCCN)NC2=O` [[D8G]Pnc1a] (H-DCRYMFGGCEKDEDCCKHLGCKRKMKYCAWDFTFT-OH; disulfide 2-16, 9-21, 15-28), at hNav1.1, the IC50 was found to be 2000 nM and the “Selectivity for Nav1.7, Nav subtype 1.1” value is listed as 35. Moreover, on hNav1.2, the IC50 amounted to 301 nM and the “Selectivity for Nav1.7, Nav subtype 1.2” value was determined as 6. Further, on hNav1.3, the 50% inhibitory concentration (IC50) was found to be 658 nM and the “Selectivity for Nav1.7, Nav subtype 1.3” value worked out at 13. Besides, on hNav1.4, the midpoint of inhibition, the IC50, lay at 2000 nM and the “Selectivity for Nav1.7, Nav subtype 1.4” value worked out at 48. At hNav1.5, the IC50 is over 30000 nM and the “Selectivity for Nav1.7, Nav subtype 1.5” value was over 616. Further, at hNav1.6, the concentration for half-maximal inhibition (IC50) is 2000 nM and the “Selectivity for Nav1.7, Nav subtype 1.6” value is on record as 46. Besides, on hNav1.7, inhibition was half-maximal at 49 nM (IC50) and the “Selectivity for Nav1.7, Nav subtype 1.7” value was determined as 1. At hNav1.8, the half-inhibitory concentration (IC50) was over 30000 nM and the “Selectivity for Nav1.7, Nav subtype 1.8” value is over 616.
As for `CSCC[C@@H]1NC(=O)[C@H](Cc2ccc(O)cc2)NC(=O)[C@H](CCCNC(=N)N)NC(=O)[C@@H](NC(=O)[C@@H](N)CC(=O)O)CSSC[C@@H]2NC(=O)[C@@H]3CSSC[C@@H](C(=O)N[C@@H](C)C(=O)N[C@@H](Cc4c[nH]c5ccccc45)C(=O)N[C@@H](CC(=O)O)C(=O)N[C@@H](Cc4ccccc4)C(=O)N[C@H](C(=O)N[C@@H](Cc4ccccc4)C(=O)N[C@H](C(=O)O)[C@@H](C)O)[C@@H](C)O)NC(=O)[C@H](Cc4ccc(O)cc4)NC(=O)[C@H](CCCCN)NC(=O)[C@H](CCSC)NC(=O)[C@H](CCCCN)NC(=O)[C@H](CCCNC(=N)N)NC(=O)[C@H](CCCCN)NC(=O)[C@H](CSSC[C@H](NC(=O)[C@H](CCCCN)NC(=O)CNC(=O)[C@H](Cc4ccccc4)NC1=O)C(=O)N[C@@H](CCC(=O)O)C(=O)N[C@@H](CCCCN)C(=O)N[C@@H](CC(=O)O)C(=O)N[C@@H](CCC(=O)O)C(=O)N[C@@H](CC(=O)O)C(=O)N3)NC(=O)CNC(=O)[C@H](CC(C)C)NC(=O)[C@H](Cc1c[nH]cn1)NC(=O)[C@H](CCCCN)NC2=O` [[D8K]Pnc1a] (H-DCRYMFGKCEKDEDCCKHLGCKRKMKYCAWDFTFT-OH; disulfide 2-16, 9-21, 15-28), on hNav1.1, the IC50 worked out at 241 nM and the “Selectivity for Nav1.7, Nav subtype 1.1” value is reported as 19. In addition, at hNav1.2, the half-inhibitory concentration (IC50) came out at 40 nM and the “Selectivity for Nav1.7, Nav subtype 1.2” value was determined as 3. For the same molecule, on hNav1.3, the IC50 turned out to be 2000 nM and the “Selectivity for Nav1.7, Nav subtype 1.3” value was determined as 159. On hNav1.4, the IC50 came out at 663 nM and the “Selectivity for Nav1.7, Nav subtype 1.4” value is recorded as 52. For the same molecule, on hNav1.5, the IC50 is over 30000 nM and the “Selectivity for Nav1.7, Nav subtype 1.5” value is given as over 2000. Moreover, at hNav1.6, the IC50 is over 30000 nM and the “Selectivity for Nav1.7, Nav subtype 1.6” value is over 2000. For the same molecule, on hNav1.7, the midpoint of inhibition, the IC50, lay at 13 nM and the “Selectivity for Nav1.7, Nav subtype 1.7” value is listed as 1. Further, at hNav1.8, the 50% inhibitory concentration (IC50) is over 30000 nM and the “Selectivity for Nav1.7, Nav subtype 1.8” value was over 2000.

(Values after patent US10662229B2, “Spider venom peptides and methods of use for modulating sodium channels” (priority 2016, dated 2020).)
